Assay results as given in article PMC2228077, “The bioavailability of oral GI147211 (GG211), a new topoisomerase I inhibitor” (British Journal of Cancer, 1997).
Where a name gives a salt, the structure may show the parent alone.

Assay: Toxicity assessment (CTC criteria) in patients, oral day 1 + i.v. days 2-5 every 3 weeks
Format: in vivo, human
Conditions: for Abdominal discomfort, drug-related toxicity per course / Diarrhoea, drug-related toxicity per course / Nausea, drug-related toxicity per course / Stomatitis, drug-related toxicity per course: CTC grade 1; for Abdominal discomfort, drug-related toxicity per course / Diarrhoea, drug-related toxicity per course / Nausea, drug-related toxicity per course / Stomatitis, drug-related toxicity per course / Fatigue, drug-related toxicity per course / Vomiting, drug-related toxicity per course: Table 2
Text: British Journal of Cancer (1997) 76(7), 946-951 ? 1997 Cancer Research Campaign The bloavailability of oral Gil 47211 (GG21 1), a new topoisomerase I inhibitor CJH Gerrits', JHM Schellens', GJ Creemers', P Wissel2, ASTh Planting', JF Pritchard2, S DePee2, M de Boer-Dennert', M Harteveld' and J Verweij' 'Department of Medical Oncology, Rotterdam Cancer Institute (Daniel den Hoed Kliniek) and University Hospital, The Netherlands; 2Glaxo Wellcome, Department of Pharmacokinetics, NC, USA Summary Topoisomerase I inhibitors are new compounds of interest for cancer chemotherapy. We performed a study with Gl147211, a new semisynthetic camptothecin analogue, to determine the absolute bioavailability of the drug given orally. […] Gi147211 was given orally on day 1 and as a 30-min infusion daily on days 2-5. The treatment course was repeated every 3 weeks. In subsequent patient cohorts, the dose of the oral formulation was escalated from 1.5 mg m-2 to 6.0 mg m-2; the dose for i.v. administration was fixed at 1.2 mg m-2. Plasma pharmacokinetics was performed on day 1 and 2 of the first course and on day 1 of the second course using a validated high-performance liquid chromatographic assay. […] Keywords: G1147211 (GG211); bioavailability; topoisomerase I inhibitor; phase I study G1147211 [7-(methylpiperazinomethylene)-10,11-ethylenedioxy- 20(S)-camptothecin dihydrochloride] is a water-soluble semisyn- thetic analogue of camptothecin (CPT). […] Its further development was stopped because of unpredictable and severe myelosuppression, gastro- intestinal toxicity and haemorrhagic cystitis (Gottlieb et al, 1970; Creaven et al, 1972; Muggia et al, 1972). Interest in CPT was renewed in the 1980s, because topoiso- merase I was identified as the single cellular target of CPT (Hsiang et al, 1988 1989), and an overexpression of topoisomerase I was found in various tumour cell lines but not in normal tissues (Giovanella et al, 1989; Hirabayashi et al, 1992). Topoisomerase I is a nuclear enzyme that resolves topological problems of the torsionally strained (supercoiled) DNA by forming a covalent adduct between topoisomerase I and the DNA, termed the cleav- able complex. This catalytic intermediate creates single-strand DNA breaks, allowing the DNA molecule to rotate around the intact DNA strand at the cleavage site, leading to a relaxation of Received 29 November 1996 Revised 27 March 1997 Accepted 1 April 1997 Correspondence to: CJH Gerrits, Department of Medical Oncology, Rotterdam Cancer Institute, (Daniel den Hoed Kliniek) and University Hospital, Groene Hilledijk 301, 3075 EA Rotterdam, The Netherlands the DNA molecule, and in this way replication, transcription and other DNA functions can proceed. These enzyme-bridged breaks are then resealed by topoisomerase I (Champoux, 1976; Muller, 1985; Muller et al, 1985; Camilloni et al, 1989). […] It has been documented that camptothecin (CPT) interferes with the breakage-reunion process of topoiso- merase I by stabilizing the enzyme-DNA cleavable complexes (Liu et al, 1989).

[1] = oral 6.0 mg m-2 level, discussion

SMILES: CC[C@@]1(O)C(=O)OCc2c1cc1n(c2=O)Cc2c-1nc1cc3c(cc1c2CN1CCN(C)CC1)OCCO3 [GI147211, 7-(methylpiperazinomethylene)-10,11-ethylenedioxy-20(S)-camptothecin dihydrochloride]
- ANC nadir (6.0 mg m-2 level, the one case with CTC grade IV): 9e+07 L⁻¹
- courses in which erythrocyte transfusions were given (CTC grade I-II anaemia occurred regularly): 24 out of 47
- platelet count, range (CTC grade III-IV thrombocytopenia): 4-40 x 109 l-1
- courses with fatigue CTC grade II (Table 2 footnote c): Four
- Abdominal discomfort, drug-related toxicity per course (Total, n = 47 courses): 6 courses
- Diarrhoea, drug-related toxicity per course (Total, n = 47 courses): 1 courses
- Nausea, drug-related toxicity per course (Total, n = 47 courses): 24 courses
- Stomatitis, drug-related toxicity per course (Total, n = 47 courses): 2 courses
- Fatigue, drug-related toxicity per course (Total, n = 47 courses): 16 courses
- myelotoxicity (first two dose levels (1.5 and 3.0 mg m-2 oral)): not observed
- duration of severe granulocytopenia, range (human, in vivo): 7 to 19 days
- duration of severe thrombocytopenia, range (human, in vivo): 3 to 16 days
- median duration of severe granulocytopenia (first occurrence to recovery to CTC grade II) (human, in vivo): 7 days
- median duration of severe thrombocytopenia (first occurrence to recovery to CTC grade II) (human, in vivo): 8 days
- nausea and vomiting after oral administration compared with intravenous dosing (human, in vivo): not different
- neutropenic sepsis (main serious adverse event) (human, in vivo): one
- patients complaining of mild fatigue (human, in vivo): 34%
- patients with treatment delay because of slow recovery of mild leucopenia (human, in vivo): six
- renal and liver toxicity (human, in vivo): not reported
- diarrhoea after a single oral administration (human, in vivo, po): did not result in diar- rhoea
- tolerability of oral administration (human, in vivo, po): well tolerated
- courses with mild leucopenia CTC grade I-II (of 47 courses): 17 courses
- mild leucopenia CTC grade I-II, share of courses (of 47 courses): 36.2%
- nausea CTC grade I, share of courses (of 47 courses): 51.6%
- vomiting CTC grade I, number of courses (of 47 courses): 9 courses
- vomiting CTC grade I, share of courses (of 47 courses): 19.1%
- reversible CTC grade I peripheral neuropathy (one patient): 2.1%
- day of the platelet nadir [1]: 8 days
- day of the platelet nadir, range [1]: 3 to 16 days
- onset of neutropenia CTC grade III-IV (oral 6.0 mg m-2 day 1 + i.v. 1.2 mg m-2 days 2-5, discussion): 7 to 19 days
- Abdominal discomfort, drug-related toxicity per course (oral dose level 1.5 mg m-2): 0 courses
- Diarrhoea, drug-related toxicity per course (oral dose level 1.5 mg m-2): 0 courses
- Nausea, drug-related toxicity per course (oral dose level 1.5 mg m-2): 4 courses
- Stomatitis, drug-related toxicity per course (oral dose level 1.5 mg m-2): 0 courses
- Fatigue, drug-related toxicity per course (oral dose level 1.5 mg m-2): 4 courses
- Vomiting, drug-related toxicity per course (oral dose level 1.5 mg m-2): 2 courses
- Abdominal discomfort, drug-related toxicity per course (oral dose level 3.0 mg m-2): 3 courses
- Diarrhoea, drug-related toxicity per course (oral dose level 3.0 mg m-2): 0 courses
- Nausea, drug-related toxicity per course (oral dose level 3.0 mg m-2): 4 courses
- Stomatitis, drug-related toxicity per course (oral dose level 3.0 mg m-2): 1 courses
- Fatigue, drug-related toxicity per course (oral dose level 3.0 mg m-2): 2 courses
- Vomiting, drug-related toxicity per course (oral dose level 3.0 mg m-2): 2 courses
- courses postponed for 1 week because of mild leucopenia with slow recovery (oral dose level 6.0 mg m-2): 10 out of 30
- courses with CTC grade III-IV granulocytopenia (oral dose level 6.0 mg m-2): 5 out of 30
- courses with CTC grade III-IV thrombocytopenia (oral dose level 6.0 mg m-2): 4 out of 30
- Abdominal discomfort, drug-related toxicity per course (oral dose level 6.0 mg m-2): 3 courses
- Diarrhoea, drug-related toxicity per course (oral dose level 6.0 mg m-2): 1 courses
- Nausea, drug-related toxicity per course (oral dose level 6.0 mg m-2): 16 courses
- Stomatitis, drug-related toxicity per course (oral dose level 6.0 mg m-2): 1 courses
